# Source: patent US20240287108A1, “nSMASE2 INHIBITOR PRODRUGS WITH ENHANCED ORAL AND BRAIN EXPOSURES” (The Johns Hopkins University, priority 2021, published 2024)
# Read-outs that look alike come from different tables or passages of the source.
# Tests used:
# [1] = in vivo pharmacokinetic studies in mice (Example 1); set-up: species or system mouse; conditions: mice; for AUC / Tmax / Cmax: po
# Experimental: 1.2.1 In vitro metabolic stability assessment. In vitro metabolic stability assessment was performed using mouse plasma, and liver homogenates. For the liver homogenates, washed tissues were diluted 10-fold in 0.1 M potassium phosphate buffer and homogenized using a probe sonicator. To evaluate the stability of the intact prodrug over time, each of the tissue matrix were aliquoted to 1 mL and then spiked with 10 μM of corresponding prodrugs followed by incubation in an orbital shaker at 37° C. for 1 h (in triplicate). Sample from each incubation at predetermined time points (0 min, and 1 h) was quenched with three volumes of acetonitrile containing the internal standard (IS: losartan: 0.5 μm). Samples were vortex-mixed for 30 secs and centrifuged at 10,000 RPM for 10 min at 4° C. Disappearance of the intact compound was measured using liquid chromatography tandem mass spectrometry (LC-MS/MS). 1.2.2 In vivo pharmacokinetic studies in mice. Male CD-1 mice (n=3) were used to study the pharmacokinetic profiles of representive prodrug compounds. […] Blood and brain were collected after sacrificing the mice at predetermined time points. Plasma was harvested from blood by centrifugation at 3,000 RPM for 15 min and stored at −80° C. Brain tissues were harvested following blood collection and immediately snap frozen in liquid nitrogen and stored at −80° C. until LC-MS/MS analysis. […] Brain tissues were diluted 1:5 w/v with acetonitrile containing losartan (0.5 μm) and homogenized, followed by vortex-mixing and centrifugation at 10,000 RPM for 10 min at 4° C. A 50 μL aliquot of the supernatant was diluted with 50 μL of water and transferred to 250 μL polypropylene autosampler vials sealed with teflon caps. Then, 2 μL of the sample was injected into the LC-MS/MS system for analysis.
# [2] = in vitro stability in CES1−/− mouse liver homogenates; type: in vitro ADME; conditions: CES1−/− mouse liver homogenate, 10 μM, 37° C.
# Experimental: (§1) All synthesized prodrugs were next screened for in vitro stability in carboxylesterase 1 knockout (CES1^−/−) mouse plasma, as well as CES1^−/− mouse brain and liver homogenates (Table 2-1). We have previously reported that CES1^−/− mouse model recapitulates human prodrug metabolism.
# (§2) For the tissue homogenates, washed tissues were diluted 10-fold in 0.1 M potassium phosphate buffer and homogenized using a probe sonicator. To evaluate the stability of the intact prodrug over time, each of the crude homogenates and plasma were aliquoted to 1 mL and then spiked with a final assay concentration of 10 μM of each prodrug followed by incubation in an orbital shaker at 37° C. for 1 h (in triplicate). Sample from each incubation at predetermined time points (0 min, and 1 h) was quenched with three volumes of acetonitrile containing the internal standard (IS; losartan: 0.5 μm). Samples were vortex-mixed for 30 secs and centrifuged at 10,000×g for 10 min at 4° C. Disappearance of intact prodrugs from these samples were performed on a Dionex ultra-high-performance LC system coupled with Q Exactive Focus orbitrap mass spectrometer (Thermo Fisher Scientific Inc., Waltham MA). […] The mobile phase consisted of 0.1% formic acid in water and 0.1% formic acid in acetonitrile. Pumps were operated at a flow rate of 0.4 mL/min for 9 min using gradient elution. The mass spectrometer controlled by Xcalibur software 4.0.27.13 (Thermo Scientific) was operated with a heated electrospray ionization (HESI) ion source in positive ionization mode. Quantification of the prodrugs were performed in the full-scan mode (from m/z 50 to 1600) by comparing t=0 samples with t=60 min samples.
# [3] = in vitro stability in CES1−/− mouse plasma; type: in vitro ADME; conditions: 10 μM
# Experimental: All synthesized prodrugs were next screened for in vitro stability in carboxylesterase 1 knockout (CES1^−/−) mouse plasma, as well as CES1^−/− mouse brain and liver homogenates (Table 2-1). We have previously reported that CES1^−/− mouse model recapitulates human prodrug metabolism. Tenora et al., 2019.
# Zimmermann et al., 2018. For the tissue homogenates, washed tissues were diluted 10-fold in 0.1 M potassium phosphate buffer and homogenized using a probe sonicator. To evaluate the stability of the intact prodrug over time, each of the crude homogenates and plasma were aliquoted to 1 mL and then spiked with a final assay concentration of 10 μM of each prodrug followed by incubation in an orbital shaker at 37° C. for 1 h (in triplicate). Sample from each incubation at predetermined time points (0 min, and 1 h) was quenched with three volumes of acetonitrile containing the internal standard (IS; losartan: 0.5 μm). Samples were vortex-mixed for 30 secs and centrifuged at 10,000×g for 10 min at 4° C. Disappearance of intact prodrugs from these samples were performed on a Dionex ultra-high-performance LC system coupled with Q Exactive Focus orbitrap mass spectrometer (Thermo Fisher Scientific Inc., Waltham MA). The separation of analytes was achieved using the Agilent Eclipse Plus column (100×2.1 mm i.d.; maintained at 35° C.) packed with a 1.8 μm C18 stationary phase. The mobile phase consisted of 0.1% formic acid in water and 0.1% formic acid in acetonitrile. Pumps were operated at a flow rate of 0.4 mL/min for 9 min using gradient elution. The mass spectrometer controlled by Xcalibur software 4.0.27.13 (Thermo Scientific) was operated with a heated electrospray ionization (HESI) ion source in positive ionization mode. Quantification of the prodrugs were performed in the full-scan mode (from m/z 50 to 1600) by comparing t=0 samples with t=60 min samples.
# [4] = in vitro stability in CES1−/− mouse brain homogenates; type: in vitro ADME; conditions: CES1−/− mouse brain homogenate, 10 μM, 37° C.
# Experimental: as §1, §2
# [5] = male, CD-1, mouse, intact prodrug, brain, 10 mg/kg eqv
# [6] = male, CD-1, mouse, intact prodrug, plasma, 10 mg/kg eqv
# [7] = CES1−/− (carboxylesterase 1 knockout), mouse, plasma
Structure (SMILES),"Stability in mouse (% remaining at 1h) Mean + Std Error, Liver [2] [%]","Stability in mouse (% remaining at 1h) Mean + Std Error, Plasma ([3]; CES1−/− mouse plasma, 37° C.) [%]","Stability in mouse (% remaining at 1h) Mean + Std Error, Brain [4] [%]",also measured
"CCCCCC(=O)Oc1c(OC)cc(-c2nc(-c3ccccc3)c(-c3cccs3)[nH]2)cc1OC [Compound P2, 2,6-Dimethoxy-4-(4-phenyl-5-(thiophen-2-yl)-1H-imidazol-2-yl)phenyl hexanoate]",,,,"Kp ([1]; male, CD-1, mouse, brain and plasma, oral, intact prodrug, 10 mg/kg eqv, read-out: Brain:Plasma ratio): 0.23; AUC [1, 5]: 1.66 nM·h; Tmax [1, 5]: 15 min; Cmax ([1]; male, CD-1, mouse, intact prodrug, brain, 10 mg/kg eqv, read-out: Cmax): 9.8 ± 0.6 nM; AUC [1, 6]: 7.04 nM·h; Tmax [1, 6]: 15 min; Cmax ([1]; male, CD-1, mouse, intact prodrug, plasma, 10 mg/kg eqv, read-out: Cmax): 51.1 ± 4.6 nM"
"COc1cc(-c2nc(-c3ccccc3)c(-c3cccs3)[nH]2)cc(OC)c1OCOP(=O)(O)O [Compound P15, (2,6-Dimethoxy-4-(4-phenyl-5-(thiophen-2-yl)-1H-imidazol-2-yl)phenoxy) methyl dihydrogen phosphate]",21 ± 0,,,
"COc1cc(-c2nc(-c3ccccc3)c(-c3cccs3)[nH]2)cc(OC)c1OC(=O)N1C2CCCC1CC2 [Compound P12, 2,6-Dimethoxy-4-(5-phenyl-4-(thiophen-2-yl)-1H-imidazol-2-yl)phenyl 8-azabicyclo[3.2.1]octane-8-carboxylate]",,,,"Stability in mouse (% remaining at 1h) Mean + Std Error, Plasma [3, 7]: 85 ± 9%"
"COc1cc(-c2nc(-c3ccccc3)c(-c3cccs3)[nH]2)cc(OC)c1OC(=O)N1C2CCC1CC(N1CCCCC1)C2 (centres unmarked) [Compound P13, 2,6-Dimethoxy-4-(5-phenyl-4-(thiophen-2-yl)-1H-imidazol-2-yl)phenyl 3-(piperidin-1-yl)-8-azabicyclo[3.2.1]octane-8-carboxylate]",78 ± 4,87 ± 2,84 ± 1,
"COc1cc(-c2nc(-c3ccccc3)c(-c3cccs3)[nH]2)cc(OC)c1OC(=O)N(C)C [Compound P5, 2,6-Dimethoxy-4-(4-phenyl-5-(thiophen-2-yl)-1H-imidazol-2-yl)phenyl dimethylcarbamate]",100 ± 1,96 ± 3,100 ± 2,"Cmax ([1]; male, CD-1, mouse, in vivo, 10 mg/kg, oral 10 mg/kg DPTIP equivalent, read-out: plasma Cmax of intact prodrug): 4300 nM; improved oral absorption as intact versus DPTIP ([1]; plasma Cmax, oral 10 mg/kg DPTIP equivalent): 10 ×"
"CCCCCN(C)C(=O)Oc1c(OC)cc(-c2nc(-c3ccccc3)c(-c3cccs3)[nH]2)cc1OC [Compound P7, 2,6-Dimethoxy-4-(5-phenyl-4-(thiophen-2-yl)-1H-imidazol-2-yl)phenyl methyl (pentyl) carbamate]",85 ± 3,50 ± 2,,
"CCCCCNC(=O)Oc1c(OC)cc(-c2nc(-c3ccccc3)c(-c3cccs3)[nH]2)cc1OC [Compound P8, 2,6-Dimethoxy-4-(5-phenyl-4-(thiophen-2-yl)-1H-imidazol-2-yl)phenyl pentylcarbamate]",83 ± 2,60 ± 6,,
"COc1cc(-c2nc(-c3ccccc3)c(-c3cccs3)[nH]2)cc(OC)c1OP(=O)(O)O [Compound P14, 2,6-Dimethoxy-4-(4-phenyl-5-(thiophen-2-yl)-1H-imidazol-2-yl)phenyl dihydrogen phosphate]",55 ± 1,91 ± 4,102 ± 2,
"CCC1CCCC(CC)N1C(=O)Oc1c(OC)cc(-c2nc(-c3ccccc3)c(-c3cccs3)[nH]2)cc1OC (centres unmarked) [Compound P10, 2,6-Dimethoxy-4-(5-phenyl-4-(thiophen-2-yl)-1H-imidazol-2-yl)phenyl 2,6-diethylpiperidine-1-carboxylate]",51 ± 1,,90 ± 1,"Stability in mouse (% remaining at 1h) Mean + Std Error, Plasma [3, 7]: 78 ± 5%"
"CCCN(CCC)C(=O)Oc1c(OC)cc(-c2nc(-c3ccccc3)c(-c3cccs3)[nH]2)cc1OC [Compound P11, 2,6-Dimethoxy-4-(5-phenyl-4-(thiophen-2-yl)-1H-imidazol-2-yl)phenyl dipropylcarbamate]",62 ± 4,99 ± 2,95 ± 4,
COc1cc(-c2nc(-c3ccccc3)c(-c3cccs3)[nH]2)cc(OC)c1OC(=O)c1ccc[n+](C)c1.[I-] [Compound 6],,,,brain levels of DPTIP ([1]; oral 10 mg/kg DPTIP equivalent): approximately 150 nM
"CCCCCCCNC(=O)Oc1c(OC)cc(-c2nc(-c3ccccc3)c(-c3cccs3)[nH]2)cc1OC [Compound P9, 2,6-Dimethoxy-4-(5-phenyl-4-(thiophen-2-yl)-1H-imidazol-2-yl)phenyl heptylcarbamate]",97 ± 4,60 ± 4,84 ± 4,
"COc1cc(-c2nc(-c3ccccc3)c(-c3cccs3)[nH]2)cc(OC)c1OC(=O)C(C)(C)C [Compound P4, 2,6-Dimethoxy-4-(4-phenyl-5-(thiophen-2-yl)-1H-imidazol-2-yl)phenyl pivalate]",,,93 ± 1,
